This is an account of results in patent publication US9173383B2, “Recombinant non-human mammalian model for hepatitis infection and immunopathogenesis” (The University of North Carolina at Chapel Hill, priority 2008, dated 2015).

In data set [1] the test system is 293T cells transfected with FKBP-Caspase 8. Kind of data set: Inducible cell killing in 293T cells co-transfected with eGFP and CMV-promoter driven FKBP-Casp8 (7AAD FACS). It counts as cell-based. An excerpt:
FIG. 4. Generation of the FKBP-Casp8 fusion gene with inducible cell killing activity. (A) Inducible activation of Caspase 8 through dimerization. The chemical dimerizer AP20187 causes dimerization/activation of Caspase 8 through interaction of adjacent FKBP binding sites. M, myristoylation signal; FKBP, FK506 binding domain; caspase, human activated caspase 8 (fragment Ser217-Aps479. ref) was cloned into the pC4M-Fv2E vector (Ariad Pharmaceuticals) to express the FKBP2-Casp8 fusion protein whose activation is induced by dimerization with AP20187. (B-C) Dose-dependent induction of apoptosis in cells transfected with FKBP-Caspase 8. 293T cells were co-transfected with plasmids expressing eGFP alone, or with CMV-promoter driven FKBP-Casp8. Transfected cells were cultured for 30 hours and then various amounts of AP20187 dimerizer was added. The cells were then cultured for 24 hours, harvested, stained with 7AAD, and analyzed by FACS for GFP and 7AAD. (B) GFP+ (transfected) cells were gated and the percentage of dead cells (7AAD+) was analyzed. (C) GFP− (untransfected bystander) cells were similarly analyzed. At least 3 independent experiments are repeated.
The FKBP-Caspase8 fusion gene with inducible cell killing activity was constructed (FIG. 4; and Chang et al. 2003. Activation of procaspases by FK506 binding protein-mediated oligomerization. Sci STKE 2003:PL1). […] Therefore, FKBP-Casp8 activation by AP20187 kills target cells expressing the gene but not bystander cells, an important point for depleting specific target cells in vivo.

The test system of data set [2] is HepG2 cells. Nature of the data set: Hepatocyte-specific apoptosis with Alb-FKBP-Casp8 in HepG2 cells (7AAD FACS). In kind it is cell-based. The note with it: AP20187 2 nM, 24 hours. The text has this: (§1) FIG. 5. Generation of Alb-FKBP-Casp8 transgenic DKO (AFC8/DKO) mice. (A) The Alb-FKBP-Casp8 transgene structure and AFC8/DKO-hu HSC/Hep mice: the FKBP2Casp8 fusion gene was cloned into the liver specific transgenic construct with the Albumin promoter (see Heckel et al. 1990. Neonatal bleeding in transgenic mice expressing urokinase-type plasminogen activator. Cell 62:447-56). (B) Hepatocyte-specific apoptosis with expression from the albumin promoter/enhancer. […] As described in FIG. 6B, the FKBP-Casp8 gene controlled by CMV enhancer or the hepatocyte-specific albumin promoter was co-transfected with GFP-expressing plasmid in 293T and HepG2 cells. Transfected cells were cultured for 30 hours and AP20187 dimerizer (2 nM) was added to the culture medium. The cells were then cultured for 24 hours, harvested, stained with 7AAD, and analyzed for GFP and 7AAD. GFP+ cells were analyzed for 7AAD uptake (dead cells). (C) Generation of Alb-FKBP-Casp8/DKO transgenic mice. Standard transgenic mouse procedure was used to inject the transgene construct into fertilized DKO embryos. In the initial screening of 11 mice from two injections, one transgenic founder was identified. […]

In data set [3] the test system is 293T cells. Kind of data set: Hepatocyte-specific apoptosis with Alb-FKBP-Casp8 in 293T cells (7AAD FACS). In kind it is cell-based. The note with it: AP20187 2 nM, 24 hours.
Text: as §1

The test system of data set [4] is human hepatocyte engraftment. Kind of data set: Human hepatocyte engraftment in AP20187-treated AFC8/DKO mice (human albumin ELISA). In kind it is in vivo, mouse. The method, then:
(§2) FIG. 9. […] AFC8/DKO transgenic mice were treated with AP20187 (5 μg/g). A. Plasma ALT levels were measured at 24 hr and 72 hr (and 3-6 days, not shown) post treatment. […] Two non-TG DKO mice were used as controls (dashed line, background). B. Livers were harvested at 24 h after the 2nd injection and H&E stained. […] V, vein. C. […] AFC8/DKO or DKO mice were treated with AP20187 (5 μg/g) one hour prior to intra-splenic injection of human hepatocytes (2×10e6/mouse). Sera were collected at 80 days post transfer and human albumin levels were determined by ELISA. […] AFC8/DKO transgenic mice were treated with AP20187 (5 μg/g). Plasma ALT levels were measured at 24 hr and 72 hr (and 3-6 days, not shown) post treatment (FIG. 9A). […] Two non-TG DKO mice were used as controls (dashed line, background). Livers were harvested at 24 h after the 2nd injection and H&E stained (FIG. 9B). […] V, vein. […] AFC8/DKO or DKO mice were treated with AP20187 (5 μg/g) one hour prior to intra-splenic injection of human hepatocytes (2×10e6/mouse). Sera were collected at 80 days post transfer and human albumin levels were determined by ELISA.

In data set [5] the test system is FKBP-Casp8. Conditions: 0.25, 1, 4 and 10 mg/kg, peritoneal; cited from earlier work.
In data set [6] the test system is murine hepatocytes. Nature of the data set: Dimer injection in AFC8/DKO transgenic mice: mouse liver damage (plasma ALT, H&E). In kind it is in vivo. How it is done: as §2
Data set [7] deals with human T and B cells. Nature of the data set: Ova vaccination of DKO-hu mice, Ova-specific T and B cell responses. In kind it is in vivo, mouse. Conditions: 3 weeks post vaccination. How it is done: FIG. 1. Long-term, stable human hemato-lymphopoiesis in HSC-DKO Mice. Human fetal liver CD34+ cells were injected intra-hepatically in newborn (1-3 days old) DKO mice. At 12-50 weeks post transplant, the human CD45^+, murine CD45^− cells in PBMC, lymph node (LN), spleen, bone marrow and thymus were analyzed by multi-color FACS. A: Human CD45 reconstitution (12-16 weeks old) in 5 cohorts of DKO-hu HSC mice from 5 independent donor fetal livers. Shown is average % human CD45+ cells in PB of reconstituted DKO-hu HSC mice. Error bars indicate standard errors of each cohort (n=numbers of mice/cohort). B: Human cells reconstitution in PBMC of the transplanted mice. […] Human T cells from a DKO-hu mouse at 50 weeks are analyzed for expression of CD45RO and CD69. […] Human T proliferation is measured by 3-H thymidine incorporation for 16 hr after 3 days post co-culture. […] H: DKO-hu mice are vaccinated with Ova protein and Ova-specific T cell recall response is measured at 3 weeks post vaccination. […] Human T cell proliferation is measured as above.
Human T cells are negatively selected by both mouse MHC/APC and human MHC/APC because both human and mouse antigen presenting cells (APC) are detected in the mouse thymus (see Traggiai et al. 2004. Development of a human adaptive immune system in cord blood cell-transplanted mice. Science 304:104-7). […]

Data set [8] deals with Ova-specific human IgG. Nature of the data set: Immunization of DKO-hu HSC mice, Ova-specific human IgG induction. It counts as in vivo. The note with it: DKO-hu HSC mouse. The text has this:
FIG. 8. Antigen-Fc fusion proteins give enhanced antigen-specific IgG induction in vivo.
Human IgG+ B cells were increased by activating human T cells in the spleen in vitro with anti-CD3/CD28 mAb (FIG. 7). […] Ova-specific human IgG induction is enhanced by using the fusion protein between the same chicken ovalbumin protein with the Fc domain of human IgG (FIG. 8).

The mark [9] stands for this setting: various amounts of AP20187, 24 hours.

Turning to `CC[C@H](C(=O)N1CCCC[C@H]1C(=O)O[C@H](CCc1ccc(OC)c(OC)c1)c1cccc(OCC(=O)NCC(CNC(=O)COc2cccc([C@@H](CCc3ccc(OC)c(OC)c3)OC(=O)[C@@H]3CCCCN3C(=O)[C@@H](CC)c3cc(OC)c(OC)c(OC)c3)c2)CN(C)C)c1)c1cc(OC)c(OC)c(OC)c1` [AP20187], in data set [1], the “effect on cells transfected with only GFP expressing gene” value is “no detectable effect”. For the same molecule, in data set [1] (setting [9]), the “death of GFP+/FKBP-Casp8+ (transfected) cells, 7AAD+” value is “led to death of GFP+/FKBP-Casp8+ cells” and the “death of GFP− (untransfected bystander) cells” value is “not GFP− bystander cells”. The “cell killing (7AAD uptake of GFP+ cells) with Alb-FKBP-Casp8” value in data set [2] is listed as “functions in HepG2”. In addition, in data set [3], the “cell killing (7AAD uptake of GFP+ cells) with Alb-FKBP-Casp8” value is recorded as “not 293T cells”. Besides, in data set [4] (5 μg/g one hour prior to intra-splenic human hepatocytes, 80 days post transfer), the “human albumin levels in sera (ELISA)” value is given as “Enhanced human albumin levels”. Moreover, the “enhanced human hepatocyte engraftment” value in data set [4] (dimer injection in AFC8/DKO mice) was 50-100 ×. The “enhanced human hepatocyte engraftment” value in data set [4] (one injection of dimerizers) was found to be 100 ×. Further, in data set [5], the “inducing Caspase8 activation and target cell depletion” value is on record as “effective”; the toxicity in mice entry is given as “No toxicity is observed”. For the same molecule, in data set [6] (24 h after the 2nd injection, TG livers), the “liver H&E staining” value is on record as “Accumulation of fat droplets”. Further, in data set [6] (AFC8/DKO mice, 5 μg/g), the mouse liver damage result is given as “transient mouse liver damage”. The “plasma ALT levels” value in data set [6] (second injection 6 days after 1st injection, 5 μg/g) is “elevated ALT levels”.

B1: chicken ovalbumin protein: chicken ovalbumin protein used as immunization antigen (protein, UniProt P01012 2-386, looked up)
Ovalbumin: GSIGAASMEFCFDVFKELKVHHANENIFYCPIAIMSALAMVYLGAKDSTRTQINKVVRFDKLPGFGDSIEAQCGTSVNVHSSLRDILNQITKPNDVYSFSLASRLYAEERYPILPEYLQCVKELYRGGLEPINFQTAADQARELINSWVESQTNGIIRNVLQPSSVDSQTAMVLVNAIVFKGLWEKAFKDEDTQAMPFRVTEQESKPVQMMYQIGLFRVASMASEKMKILELPFASGTMSMLVLLPDEVSGLEQLESIINFEKLTEWTSSNVMEERKIKVYLPRMKMEEKYNLTSVLMAMGITDVFSSSANLSGISSAESLKISQAVHAAHAEINEAGREVVGSAEAGVDAASVSEEFRADHPFLFCIKHIATNAVLFFGRCVSP
As for B1, in data set [7], the “Ova-specific human T and B cell responses” value was “induces Ova-specific human T and B cell responses”. In addition, the “Ova-specific human IgG” value in data set [8] is reported as “very low levels”.
